Source: paper PMC9492542, “Brain-restricted mTOR inhibition with binary pharmacology” (Nature, 2022)
Several values for one entry are separate records, joined by “and”; a condition that tells them apart may be missing. Identical values can stand only once. Like-named read-outs stand apart in the source and are kept apart here.

Columns and labels:
[1] = tested on: human PBMCs; test: Proliferation of anti-CD3/anti-CD28 stimulated PBMCs (120 h); format: cell-based
[2] = tested on: GBM43; test: Orthotopic intracranial GBM43-luciferase patient-derived glioblastoma xenograft; conditions: GBM43-Luc
[3] = tested on: mTOR; test: Immunoblot analysis of mTOR signalling (p-S6, p-4EBP1) in MCF7 cells, incl. screen for blocking of rapamycin/RapaLink-1; conditions: for blocking of mTOR inhibition by RapaLink-1 in cells: 10 nM RapaLink-1 + 10 µM blocker, immunoblot
[4] = target: T1, FKBP12 (Homo sapiens, UniProt P62942); test: Competition fluorescence polarization assay with FITC-rapamycin tracer; format: binding
T1 construct: His-tag (HRV 3C cleavable) (cleaved yes); made in house; host or cells: Escherichia coli BL21(DE3)
T1 sequence (P62942 whole entry): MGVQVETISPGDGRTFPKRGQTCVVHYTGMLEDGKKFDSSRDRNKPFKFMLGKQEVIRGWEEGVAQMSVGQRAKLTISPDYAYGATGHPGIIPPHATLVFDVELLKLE
Protocol: Compound binding affinity was determined using a competition fluorescence polarization assay. […] The assay buffer was 20 mM HEPES pH 7.5 and 0.01% Triton X-100. […] Data were fitted to a three-parameter sigmoidal curve to derive IC50 values. Ki of the compounds were calculated using a tool provided by S. Wang’s laboratory (http://www.umich.edu/~shaomengwanglab/software/calc_ki/index.html). Data were plotted in GraphPad Prism 9.0.

[5] = tested on: NFAT; test: NFAT activation assay (Jurkat-Lucia NFAT luciferase reporter, PMA/ionomycin); format: cell-based; conditions: for IC50: Homo sapiens, Jurkat NFAT luciferase, PMA + ionomycin
Protocol: Jurkat-Lucia NFAT cells were resuspended to 2 × 10^6 cells per ml in fresh growth medium and dispensed in 96-well tissue culture plates (Corning 3904; 180 µl per well). DMSO solutions of test compounds at 100× the test concentrations were added and the cells were incubated for 4 h at 37 °C. A 10× stimulation solution containing phorbol myristate acetate (100 ng ml^–1) and ionomycin (10 µg ml^–1) were added to each well (20 µl per well) except for the negative control wells, which were supplemented with 20 µl medium. Cells were incubated at 37 °C for 12 h. Cells (20 µl per well) were transferred into a white opaque 96-well plate (Corning 3912). TECAN Spark 20M plate reader equipped with an auto-injection system was primed with Lucia luciferase substrate solution and set with the following parameters: 50 µl of injection volume, end-point measurement with a 4-s delay time and 0.1-s integration time. Luciferase activity was measured with the settings above and normalized to DMSO-treated, stimulated cells. Data were plotted in GraphPad Prism 9.0.

[6] = tested on: mTOR; test: mTOR signalling in mouse whole brain and skeletal muscle after single i.p. dose (immunoblot, insulin stimulated); format: in vivo; conditions: for p-4EBP1 Brain, fold relative to no insulin, normalized to GAPDH / p-4EBP1 Muscle, fold relative to no insulin, normalized to GAPDH / p-RPS6 Brain, fold relative to no insulin, normalized to GAPDH / p-RPS6 Muscle, fold relative to no insulin, normalized to GAPDH: RL1 1 mg/kg, RB 40 mg/kg, insulin 250 mU, listed as RB
Protocol: Whole brain and skeletal muscle were analyzed by immunoblot.

[7] = tested on: U87MG; test: Orthotopic intracranial U87MG-luciferase glioblastoma xenograft
[8] = U87MG-Luc, day 0, individual mice
[9] = U87MG-Luc, day 5, individual mice
[10] = U87MG-Luc, day 10, individual mice
[11] = U87MG-Luc, day 15, individual mice
[12] = U87MG-Luc, day 20, individual mice

SMILES: CO[C@H]1C[C@@H](C)C/C(C)=C/[C@@H](CCCc2cccc[n+]2[O-])C(=O)C[C@H](O)[C@@H](C)[C@@H](/C(C)=C/[C@@H]2CC[C@@H](O)[C@H](OC)C2)OC(=O)[C@@H]2CCCCN2C(=O)C(=O)[C@]2(O)O[C@H]1[C@@H](OC)C[C@H]2C [RapaBlock]
- shift of RapaLink-1 IC50 for PBMC proliferation by addition of RapaBlock ([1]; 5 days): more than 100 fold
- protection of PBMCs from rapamycin-mediated growth inhibition ([1]; compared with protection from RapaLink-1): appeared more effective at protecting PBMCs from rapamycin-mediated growth inhibition
- relative proliferation compared to DMSO-treated cells ([1]; constant 10 µM RapaBlock, low RapaLink-1/rapamycin concentrations): ~ 100%
- Mouse weight ([2]; day 0, individual mice): 22.5 g and 18.4 g and 23.4 g and 24.1 g and 22.4 g and 24.3 g
- Tumor size (measured by bioluminescence) ([2]; day 0, individual mice): 545000 and 240000 and 88600 and 6780000 and 3240000 and 1560000
- Mouse weight ([2]; day 4, individual mice): 22.5 g and 20 g and 24 g and 25.1 g and 23.3 g and 25 g
- Tumor size (measured by bioluminescence) ([2]; day 4, individual mice): 550000 and 781000 and 188000 and 20000000 and 920000 and 2990000
- Mouse weight ([2]; day 7, individual mice): 22 g and 20 g and 25 g (2×) and 23.4 g and 25.8 g
- Tumor size (measured by bioluminescence) ([2]; day 7, individual mice): 42300000 and 19300000 and 2230000 and 1130000000 and 47100000 and 178000000
- Mouse weight ([2]; day 10, individual mice): 21.7 g and 19.6 g and 24.5 g and 24.8 g (2×) and 22.7 g
- Tumor size (measured by bioluminescence) ([2]; day 10, individual mice): 782000000 and 3210000 and 104000000 and 3810000000 and 1590000000 and 1220000000
- Mouse survival ([2]; individual mice): 16 days and 17 days and 18 days
- blocking of rapamycin (phospho-S6 signal) ([3]; MCF7, 100:1 stoichiometry RapaBlock:rapamycin): restoring the phospho-S6 signal to the same level as untreated cells
- attenuation of RapaLink-1 effects on mTOR signalling ([3]; MCF7, 4 h, with 10 nM RapaLink-1): attenuates the pharmacological effects of RapaLink-1 in a dose-dependent manner
- effect on mTOR signalling by itself ([3]; cultured cells, up to 10 µM): does not affect mTOR signalling by itself
- fluorescence polarization (competition, raw) ([4]; 0.0976562 nM compound): 114 and 112
- fluorescence polarization (competition, raw) ([4]; 0.195312 nM compound): 114 and 112
- fluorescence polarization (competition, raw) ([4]; 0.390625 nM compound): 112 and 110
- fluorescence polarization (competition, raw) ([4]; 0.78125 nM compound): 110 and 109
- fluorescence polarization (competition, raw) ([4]; 1.5625 nM compound): 109
- fluorescence polarization (competition, raw) ([4]; 3.125 nM compound): 100 and 104
- fluorescence polarization (competition, raw) ([4]; 6.25 nM compound): 86 and 88
- fluorescence polarization (competition, raw) ([4]; 12.5 nM compound): 74
- fluorescence polarization (competition, raw) ([4]; 25 nM compound): 64 and 62
- fluorescence polarization (competition, raw) ([4]; 50 nM compound): 56 and 58
- fluorescence polarization (competition, raw) ([4]; 100 nM compound): 46 and 55
- Ki ([4]; Extended Data Fig. 4b, n = 3, read-out: Ki(FKBP12)): 1.4 nM
- Ki ([4]; Fig. 2d, fluorescein-labelled rapamycin tracer, read-out: FKBP12 Ki): 3.1 nM
- Kd ([4]; measured in-house in a single fluorescence polarization experiment, read-out: Kd3 (RapaBlock binding to FKBP)): 2.5 nM
- Kd ([4]; recombinant FKBP12, Extended Data Fig. 2, read-out: Kd (FKBP12)): 1.6 nM
- NFAT luciferase activity, normalized to DMSO-treated stimulated cells ([5]; 0.00512 nM): 93 and 91.3 and 97
- NFAT luciferase activity, normalized to DMSO-treated stimulated cells ([5]; 0.0256 nM): 97.8 and 104.3 and 98.9
- NFAT luciferase activity, normalized to DMSO-treated stimulated cells ([5]; 0.128 nM): 95.3 and 89 and 97
- NFAT luciferase activity, normalized to DMSO-treated stimulated cells ([5]; 0.64 nM): 97.6 and 92.3 and 99.2
- NFAT luciferase activity, normalized to DMSO-treated stimulated cells ([5]; 16 nM): 100.2 and 101.6 and 105.7
- NFAT luciferase activity, normalized to DMSO-treated stimulated cells ([5]; 80 nM): 104.1 and 109.3 and 105.3
- NFAT luciferase activity, normalized to DMSO-treated stimulated cells ([5]; 400 nM): 109.4 and 107.4 and 106.7
- NFAT luciferase activity, normalized to DMSO-treated stimulated cells ([5]; 2000 nM): 112.3 and 110 and 113.9
- NFAT luciferase activity, normalized to DMSO-treated stimulated cells ([5]; 10000 nM): 112 and 113.2 and 110.3
- inhibitory activity for calcineurin ([5]; Fig. 2e): does not exhibit any inhibitory activity for calcineurin
- IC50 [5]: > 10000 nM
- p-4EBP1 Brain, fold relative to no insulin, normalized to GAPDH ([6]; 4h): 1.83 and 2 and 1.39
- p-4EBP1 Muscle, fold relative to no insulin, normalized to GAPDH ([6]; 4h): 1.7 and 2.09 and 1.93
- p-RPS6 Brain, fold relative to no insulin, normalized to GAPDH ([6]; 4h): 1.92 and 2.13 and 3
- p-RPS6 Muscle, fold relative to no insulin, normalized to GAPDH ([6]; 4h): 2.39 and 2.47 and 2.32
- p-4EBP1 Brain, fold relative to no insulin, normalized to GAPDH ([6]; 24h): 1.46 and 1.83 and 1.26
- p-4EBP1 Muscle, fold relative to no insulin, normalized to GAPDH ([6]; 24h): 2.04 and 2.08 and 2.19
- p-RPS6 Brain, fold relative to no insulin, normalized to GAPDH ([6]; 24h): 1.78 and 1.76 and 3.3
- p-RPS6 Muscle, fold relative to no insulin, normalized to GAPDH ([6]; 24h): 3.51 and 2.13 and 2.07
- tissue-specific protection from RapaLink-1 (in vivo screen) ([6]; RapaLink-1 1 mg per kg + candidate 40 mg per kg): protected peripheral tissues from RapaLink-1 but allowed potent inhibition of mTOR in the brain
- tumour growth and survival ([7]; RapaLink-1 1 mg per kg, RapaBlock 40 mg per kg, i.p. every 5 days): no significant effect on either
- Mouse weight [7, 8]: 23.7 g and 18.4 g and 20.5 g and 22.9 g and 23.2 g and 19.4 g
- Tumor size (measured by bioluminescence) [7, 8]: 17700000 and 2260000 and 10400000 and 10700000 and 2010000 and 11600000
- Mouse weight [7, 9]: 25.1 g and 20.4 g and 22.3 g and 25.2 g and 24.1 g and 21.1 g
- Tumor size (measured by bioluminescence) [7, 9]: 43100000 and 13000000 and 366000 and 28000000 and 11500000 and 3180000
- Mouse weight [7, 10]: 24.6 g and 21.1 g and 22.5 g and 25.3 g and 23.8 g and 21.3 g
- Tumor size (measured by bioluminescence) [7, 10]: 1970000 and 19800000 and 27300000 and 73500000 and 25400000 and 8750000
- Mouse weight [7, 11]: 24.4 g and 21.8 g and 23 g (2×) and 25 g and 21.9 g
- Tumor size (measured by bioluminescence) [7, 11]: 1140000000 and 112000000 and 171000000 and 820000000 and 161000000 and 1140000
- Mouse weight [7, 12]: 19.5 g and 24.1 g and 23.9 g and 23.1 g
- Tumor size (measured by bioluminescence) [7, 12]: 6750000000 and 1500000000 and 1360000000 and 47000000 and 739000000
- Mouse survival ([7]; U87MG-Luc, individual mice): 25 days and 21 days and 28 days and 23 days

SMILES: CCON=C1C[C@H](O)[C@@H](C)[C@@H](/C(C)=C/[C@@H]2CC[C@@H](O)[C@H](OC)C2)OC(=O)[C@@H]2CCCCN2C(=O)C(=O)[C@]2(O)O[C@H]([C@@H](OC)C[C@@H](C)C/C(C)=C/[C@H]1CCCc1cccc[n+]1[O-])[C@@H](OC)C[C@H]2C [RapaBlock ethyl oxime]
- blocking of mTOR inhibition by RapaLink-1 in cells [3]: less potent at blocking RapaLink-1
- blocking of mTOR inhibition by RapaLink-1 in cells ([3]; listed as RapaBlock-Oxime): much less effective at blocking the inhibition
- Ki [4]: 360 nM

SMILES: C=CC[C@@H]1/C=C(\C)C[C@H](C)C[C@H](OC)[C@H]2O[C@@](O)(C(=O)C(=O)N3CCCC[C@H]3C(=O)O[C@H](/C(C)=C/[C@@H]3CC[C@@H](O)[C@H](OC)C3)[C@H](C)[C@@H](O)CC1=O)[C@H](C)C[C@@H]2OC [FK506]
- fluorescence polarization (competition, raw) ([4]; 0.0976562 nM compound): 108
- fluorescence polarization (competition, raw) ([4]; 0.195312 nM compound): 110 and 109
- fluorescence polarization (competition, raw) ([4]; 0.390625 nM compound): 108
- fluorescence polarization (competition, raw) ([4]; 0.78125 nM compound): 107 and 103
- fluorescence polarization (competition, raw) ([4]; 1.5625 nM compound): 104 and 103
- fluorescence polarization (competition, raw) ([4]; 3.125 nM compound): 92 and 96
- fluorescence polarization (competition, raw) ([4]; 6.25 nM compound): 75 and 72
- fluorescence polarization (competition, raw) ([4]; 12.5 nM compound): 66 and 60
- fluorescence polarization (competition, raw) ([4]; 25 nM compound): 57 and 55
- fluorescence polarization (competition, raw) ([4]; 50 nM compound): 53 and 55
- fluorescence polarization (competition, raw) ([4]; 100 nM compound): 46 and 51
- NFAT luciferase activity, normalized to DMSO-treated stimulated cells ([5]; 0.00512 nM): 103.4 and 90.3 and 99.2
- NFAT luciferase activity, normalized to DMSO-treated stimulated cells ([5]; 0.0256 nM): 93.6 and 87.2 and 91.4
- NFAT luciferase activity, normalized to DMSO-treated stimulated cells ([5]; 0.128 nM): 35.5 and 35.2 and 38.5
- NFAT luciferase activity, normalized to DMSO-treated stimulated cells ([5]; 0.64 nM): 0.2
- NFAT luciferase activity, normalized to DMSO-treated stimulated cells ([5]; 16 nM): 0.1
- NFAT luciferase activity, normalized to DMSO-treated stimulated cells ([5]; 80 nM): 0.1 and 0.2
- NFAT luciferase activity, normalized to DMSO-treated stimulated cells ([5]; 400 nM): 0.1 and 0.2
- NFAT luciferase activity, normalized to DMSO-treated stimulated cells ([5]; 2000 nM): 0.2
- NFAT luciferase activity, normalized to DMSO-treated stimulated cells ([5]; 10000 nM): 0.2
- IC50 [5]: 0.094 ± 0.008 nM
